According to patent publication US11046722B2, “Sulphated disaccharides for the treatment of neuropathic pain” (BIOIBERICA, S.A.U., priority 2017, dated 2021):

Columns and labels:
[1] = test system: cold allodynia induced in mice by subcutaneous carrageenan injection; test: Cold allodynia induced by subcutaneous carrageenan injection (acetone test, time spent licking the paw); format: in vivo; settings: carrageenan 1% 50 μl s.c., 60 mg/Kg orally 3.5 hours after injection, acetone test 45 minutes after treatment
From the text: In Example 4 an experimental model is used of cold allodynia induced in mice by subcutaneous carrageenan injection, as described in the article by Choi et al., Behavioral signs of ongoing pain and cold allodynia in a rat model of neuropathic pain, Pain, 1994, 59 (3), 369-376. This trial is based on causing cold allodynia in mice by subcutaneous carrageenan injection in the plantar surface of one of the hind paws of the animals, and subsequently measuring the sensitivity to cold by applying acetone on the plantar surface of both hind paws: the ipsilateral (the same one where the carrageenan was injected) and the contralateral (the unsensitized hind paw). The sensitivity to cold is quantified by measuring the time the animals spent licking the paw for 5 minutes after the application of the acetone. As described in such example, compound Ic is effective in reversing the cold allodynia according to this model (FIG. 6).
In this trial 16 mice were used to which 50 μl of a carrageenan solution at 1% were administered by subcutaneous injection in the plantar surface of one of the hind paws. After 3.5 hours since the injection, 60 mg/Kg of the Ic compound was administered orally to 9 of the animals, while only the vehicle (saline solution) was administered to the remaining 7 (control group). […]

[2] = test system: mechanical allodynia due to diabetes induced by injecting streptozotocin; test: Diabetic allodynia induced by streptozotocin injection (von Frey, 50% pain threshold); format: in vivo, mice; settings: streptozotocin 60 mg/Kg i.p. for five days, day 25, 45 minutes after administration
From the text: In Example 5 an experimental trial is described of mechanical allodynia in diabetic mice induced by intraperitoneal streptozotocin injection, based on the model described in the article by Courteix et al., Streptozotocin-induced diabetic rats: behavioural evidence for a model of chronic pain, Pain, 1993, 81-88. This model is based on causing a mechanical allodynia in mice by inducing diabetes by means of intraperitoneal streptozotocin injection. It is observed that the administration of different doses of compound Ic is effective in reversing the allodynia induced by diabetes, as quantified by the statistically significant increase observed in the treated animals, of the threshold force that is necessary to apply in order to produce paw withdrawal in the animals (FIG. 7). […] For the evaluation of the effect of the Ic compound on the allodynia induced in this manner by diabetes, five groups of animals were used with at least 7 animals in each group, and the allodynia was quantified using von Frey filaments, according to the force threshold necessary to cause the animal's paw's withdrawal. Compound Ic was administered orally to the animals by gavage, in a single administration and allodynia was measured in each animal immediately before the administration and 45 minutes after the administration. […]

CO[C@H]1O[C@H](COS(=O)(=O)[O-])[C@@H](OS(=O)(=O)[O-])[C@H](O[C@@H]2O[C@H](C(=O)[O-])[C@@H](O)[C@H](O)[C@H]2O)[C@H]1NC(C)=O.[Na+].[Na+].[Na+] [Compound Ic, methyl 2-acetamido-2-desoxi-3-O-(β-D-glucopyranosyluronic acid)-4,6-di-O-sulfo-α-D-glucopyranoside trisodium salt]
reversal of cold allodynia (ipsilateral paw) [1]: completely reversed | reversal of the allodynia induced by diabetes ([2]; 10 mg/kg single oral dose by gavage): effective at reversing the allodynia | reversal of the allodynia induced by diabetes ([2]; 30 mg/kg single oral dose by gavage, differences statistically significant): effective at reversing the allodynia
